From the NIST ThermoML archive (doi:10.1016/j.jct.2004.10.011)

Assay: xn = mol fraction of the nth substance listed
Conditions: 328.15 K, Liquid, Vibrating tube method

CCC(=O)c1ccccc1 [ethyl phenyl ketone] + Cc1ccccc1
mass density [kg/m3]
Conditions	x2 = 0	x2 = 0.1048	x2 = 0.2025	x2 = 0.3006	x2 = 0.3991	x2 = 0.4998	x2 = 0.6004	x2 = 0.7036	x2 = 0.8028	x2 = 0.902
100 kPa	979.6	967.8	956.5	944.4	931.4	917.54	902.56	886.7	870.2	852.8
2130 kPa	981.1	969.1	957.8	945.7	932.8	918.96	904.06	888.3	871.8	854.5
4150 kPa	982.4	970.5	959.2	947.1	934.3	920.45	905.6	889.9	873.5	856.2
6180 kPa	983.7	971.8	960.5	948.5	935.7	921.95	907.14	891.5	875.1	857.9
8210 kPa	985	973.1	961.8	949.9	937.1	923.37	908.63	893	876.7	859.6
10230 kPa	986.2	974.5	963.2	951.2	938.5	924.82	910.11	894.5	878.3	861.2
11250 kPa	986.9	975.1	963.8	951.9	939.2	925.52	910.85	895.3	879	862
12260 kPa	987.5	975.7	964.5	952.5	939.9	926.2	911.57	896	879.8	862.8
14290 kPa	988.7	977	965.8	953.9	941.2	927.61	913.02	897.5	881.4	864.5
16310 kPa	990	978.3	967.1	955.2	942.6	928.98	914.44	898.9	882.9	866
18340 kPa	991.2	979.5	968.3	956.5	943.9	930.34	915.83	900.4	884.4	867.6
20370 kPa	992.3	980.8	969.6	957.7	945.2	931.69	917.22	901.8	885.8	869.1
22390 kPa	993.5	982	970.8	959	946.5	933.04	918.61	903.2	887.3	870.6
24420 kPa	994.7	983.2	972	960.2	947.7	934.34	919.95	904.6	888.7	872
26450 kPa	995.9	984.4	973.2	961.5	949	935.61	921.26	905.9	890.1	873.5
28470 kPa	997.1	985.6	974.5	962.7	950.2	936.91	922.59	907.2	891.5	874.9
29490 kPa	997.6	986.2	975	963.3	950.8	937.56	923.26	908	892.2	875.7
30500 kPa	998.2	986.7	975.6	963.9	951.5	938.18	923.89	908.6	892.9	876.4
32530 kPa	999.3	987.9	976.8	965.1	952.7	939.41	925.17	909.9	894.2	877.7
34550 kPa	1000.4	989	978	966.2	953.9	940.65	926.43	911.2	895.6	879.1
36580 kPa	1001.5	990.2	979.1	967.4	955.1	941.85	927.68	912.5	896.9	880.4
38600 kPa	1002.6	991.3	980.3	968.6	956.2	943.07	928.95	913.7	898.2	881.8
39620 kPa	1003.2	991.9	980.8	969.1	956.9	943.64	929.53	914.4	898.8	882.4
